Like-named read-outs stand apart in the source and are kept apart here.
What was measured:
HIV-1 protease = HIV-1 protease (Human immunodeficiency virus type 1 group M subtype B, UniProt P04585); assay: biochemical; conditions: Table 12; HIV-1 protease; read-out: Ki
HIV-1 (strain IIIB) = assay: microbe, parasite or virus in culture; type: cell-based; conditions: read-out: IC50
[1] = Human immunodeficiency virus 1, IIIB, MT4, Table 12, anti-viral potency in MT-4 cells
[2] = Human immunodeficiency virus 1, IIIB, MT4, Table 13, MT-4 cell based assay, class symbol
[3] = Table 12, anti-viral potency in MT-4 cells

Row | SMILES | Ki (HIV-1 protease) | IC50 (HIV-1 (strain IIIB); [1]) | IC50 (HIV-1 (strain IIIB); [2]) | IC50 (HIV-1 (strain IIIB); [3]) | IC50 (HIV-1 (strain IIIB))
1 | CCC(CCC#N)CN(CC(O)C(Cc1ccccc1)NC(=O)OC1CCOC1)S(=O)(=O)c1ccc(OC)cc1 [Compound 9, (3S)-Tetrahydro-3-furanyl N-((1S,2R)-1-benzyl-3-[(2RS)-4-cyano-2-ethyl][(4-methoxyphenyl)sulfonyl]amino-2-hydroxypropyl)carbamate] | < 1 nM | > 1000 nM |  |  | 
2 | CC(C)(CCC#N)CN(CC(O)[C@H](Cc1ccccc1)NC(=O)OC1COC2OCCC12)S(=O)(=O)c1cccc(N)c1 (stereo partly drawn) [Compound 10, (3S,3aR,6aS)-Hexahydrofuro[2,3-b]furan-3-yl N-((1S,2R)-3-[(3-aminophenyl)sulfonyl](4-cyano-2,2-dimethylbutyl)-amino-1-benzyl-2-hydroxypropyl)carbamate] | < 1 nM | ≤ 100 nM |  |  | 
3 | COc1ccc(S(=O)(=O)N(CC(O)C(Cc2ccccc2)NC(=O)OC2COC3OCCC23)CC(C)(C)CCC#N)cc1 [Compound 11, (3S,3aR,6aS)-Hexahydrofuro[2,3-b]furan-3-yl N-((1S,2R)-1-benzyl-3-(4-cyano-2,2-dimethylbutyl)[(4-methoxyphenyl)sulfonyl]amino-2-hydroxypropyl)carbamate] | < 1 nM | ≤ 100 nM |  |  | 
4 | CNc1cccc(S(=O)(=O)N(C[C@@H](O)[C@H](Cc2ccccc2)NC(=O)O[C@H]2CO[C@H]3OCC[C@H]32)CC(C)(C)CCC#N)c1 [Compound 12, (3R,3aS,6aR)-Hexahydrofuro[2,3-b]furan-3-yl N-[(1S,2R)-1-benzyl-3-((4-cyano-2,2-dimethylbutyl)[3-(methylamino)-phenyl]sulfonylamino)-2-hydroxypropyl]carbamate] | < 1 nM | ≤ 100 nM | 1 to 10 nM |  | 
5 | CC(C)(CCC#N)CN(CC(O)[C@H](Cc1ccccc1)NC(=O)OC1COC2OCCC12)S(=O)(=O)c1cccc(N)c1 (stereo partly drawn) [Compound 16, (3R,3aS,6aR)-Hexahydrofuro[2,3-b]furan-3-yl N-((1S,2R)-3-[(3-aminophenyl)sulfonyl](4-cyano-2,2-dimethylbutyl)amino-1-benzyl-2-hydroxypropyl)carbamate] | < 1 nM |  |  | ≤ 100 nM | 
6 | CCC(CC)(CCC#N)CN(C[C@@H](O)[C@H](Cc1ccccc1)NC(=O)O[C@H]1CCOC1)S(=O)(=O)c1ccc(OC)cc1 [Compound 17, (3S)-Tetrahydro-3-furanyl N-((1S,2R)-1-benzyl-3-(4-cyano-2,2-diethylbutyl)[(4-methoxyphenyl)sulfonyl]amino-2-hydroxypropyl)carbamate] | < 1 nM |  |  |  | 100 to 500 nM
7 | COc1ccc(S(=O)(=O)N(C[C@@H](O)[C@H](Cc2ccccc2)NC(=O)O[C@H]2CCOC2)CC(C)(C)CCCC#N)cc1 [Compound 18, (3S)-Tetrahydro-3-furanyl N-((1S,2R)-1-benzyl-3-(5-cyano-2,2-dimethylpentyl)[(4-methoxyphenyl)sulfonyl]amino-2-hydroxypropyl)carbamate] | < 1 nM | 100 to 500 nM |  |  | 
8 | COc1ccc(S(=O)(=O)N(C[C@@H](O)[C@H](Cc2ccccc2)NC(=O)OC2COCOC2)CC(C)(C)CCC#N)cc1 [Compound 19, {(1S,2R)-1-Benzyl-3-[(4-cyano-2,2-dimethyl-butyl)-(4-methoxy-benzenesulfonyl)-amino]-2-hydroxy-propyl}-carbamic acid[1,3]dioxan-5-yl ester] | < 1 nM | 100 to 500 nM |  |  | 
9 | COc1ccc(S(=O)(=O)N(C[C@@H](O)[C@H](Cc2ccccc2)NC(=O)C(C)CS(C)(=O)=O)CC(C)(C)CCC#N)cc1 (stereo partly drawn) [Compound 22, 1N-(3-Methylsulfonylisobutyryl)-(1S,2R)-1-benzyl-3-(4-cyano-2,2-dimethylbutyl)[4-methoxyphenylsulfonyl]amino-2-hydroxypropyl amine] | < 1 nM |  |  | 100 to 500 nM | 
10 | CC(C)(CCC#N)CN(C[C@@H](O)[C@H](Cc1ccccc1)NC(=O)O[C@H]1CO[C@H]2OCC[C@H]21)S(=O)(=O)c1ccc2c(c1)OCO2 [Compound 25, {(1S,2R)-3-[(Benzo[1,3]dioxole-5-sulfonyl)-(4-cyano-2,2-dimethyl-butyl)-amino]-1-benzyl-2-hydroxy-propyl}-carbamic acid (3R, 3aS, 6aR)hexahydro-furo[2,3-b]furan-3-yl ester] | < 1 nM | ≤ 100 nM |  |  | 
11 | COc1ccc(S(=O)(=O)N(CCCCC#N)C[C@@H](O)[C@H](Cc2ccccc2)NC(=O)O[C@H]2CCOC2)cc1 [Compound 26, (3S)-Tetrahydro-3-furanyl N-((1S,2R)-1-benzyl-3-(4-cyanobutyl)[(4-methoxyphenyl)sulfonyl]amino-2-hydroxypropyl)carbamate] | < 1 nM | 100 to 500 nM |  |  | 
12 | CC(C)(CCC#N)CN(C[C@@H](O)[C@H](Cc1ccccc1)NC(=O)OC1COCOC1)C(=O)OCc1ccccc1 [Compound 28, (4-Cyano-2,2-dimethyl-butyl)-[(2R,3S)-3-([1,3]dioxan-5-yloxycarbonylamino)-2-hydroxy-4-phenyl-butyl]-carbamic acid benzyl ester] | < 1 nM | 100 to 500 nM |  |  | 
13 | CC(=O)Nc1ccc(S(=O)(=O)N(C[C@@H](O)[C@H](Cc2ccccc2)NC(=O)O[C@H]2CO[C@H]3OCC[C@H]32)CC(C)(C)CCC#N)cc1 [Compound 29, {(1S,2R)-3-[(4-Acetylamino-benzenesulfonyl)-(4-cyano-2,2-dimethyl-butyl)-amino]-1-benzyl-2-hydroxy-propyl}-carbamic acid (3R,3aS,6aR)hexahydro-furo[2,3-b]furan-3-yl ester] | < 1 nM | 100 to 500 nM |  |  | 
14 | CC(=O)Nc1cc(S(=O)(=O)N(C[C@@H](O)[C@H](Cc2ccccc2)NC(=O)O[C@H]2CO[C@H]3OCC[C@H]32)CC(C)(C)CCC#N)ccc1F [Compound 30, {(1S,2R)-3-[(3-Acetylamino-4-fluoro-benzenesulfonyl)-(4-cyano-2,2-dimethyl-butyl)-amino]-1-benzyl-2-hydroxy-propyl}-carbamic acid (3R,3aS,6aR)hexahydro-furo[2,3-b]furan-3-yl ester] | < 1 nM | ≤ 100 nM |  |  | 
15 | CC(=O)Nc1cccc(S(=O)(=O)N(C[C@@H](O)[C@H](Cc2ccccc2)NC(=O)O[C@H]2CO[C@H]3OCC[C@H]32)CC(C)(C)CCC#N)c1 [Compound 31, {(1S,2R)-3-[(3-Acetylamino-benzenesulfonyl)-(4-cyano-2,2-dimethyl-butyl)-amino]-1-benzyl-2-hydroxy-propyl}-carbamic acid (3R,3aS,6aR)hexahydro-furo[2,3-b]furan-3-yl ester] | < 1 nM | ≤ 100 nM |  |  | 
16 | CC(C)(CCC#N)CN(CC(O)C(Cc1ccccc1)NC(=O)OC1COC2OCCC12)S(=O)(=O)c1ccc(OCc2ccccc2)cc1 [Compound 32, {(1S,2R)-3-[(4-benzyloxybenzenesulfonyl)-(4-cyano-2,2-dimethyl-butyl)-amino]-1-benzyl-2-hydroxy-propyl}-carbamic acid (2R,3aS,6aR)hexahydro-furo[2,3-b]furan-3-yl ester] | < 1 nM | 100 to 500 nM |  |  | 
17 | CC(C)(CCC#N)CN(C[C@@H](O)[C@H](Cc1ccccc1)NC(=O)OC1COCOC1)S(=O)(=O)c1ccc(OCc2ccccc2)cc1 [Compound 33, {(1S,2R)-1-Benzyl-3-[(4-cyano-2,2-dimethyl-butyl)-(4-benzyloxybenzenesulfonyl)-amino]-2-hydroxy-propyl}-carbamic acid[1,3]dioxan-5-yl ester] | 10 to 100 nM | 500 to 1000 nM |  |  | 
18 | CC(C)(CCC#N)CN(CC(O)C(Cc1ccccc1)NC(=O)OC1COC2OCCC12)S(=O)(=O)c1ccc(O)cc1 [Compound 35, {(1S,2R)-3-[(4-hydroxybenzenesulfonyl)-(4-cyano-2,2-dimethyl-butyl)-amino]-1-benzyl-2-hydroxy-propyl}-carbamic acid (2R,3aS,6aR)hexahydro-furo[2,3-b]furan-3-yl ester] | < 1 nM | ≤ 100 nM |  |  | 
19 | CC(C)(CCC#N)CN(C[C@@H](O)[C@H](Cc1ccccc1)NC(=O)OC1COCOC1)S(=O)(=O)c1ccc2c(c1)OCO2 [Compound 36, {(1S,2R)-3-[(Benzo[1,3]dioxole-5-sulfonyl)-(4-cyano-2,2-dimethyl-butyl)-amino]-1-benzyl-2-hydroxy-propyl}-carbamic acid[1,3]dioxan-5-yl ester] | < 1 nM | ≤ 100 nM |  |  | 
20 | CC(C)(CCC#N)CN(CC(O)C(Cc1ccccc1)NC(=O)OC1COC2OCCC12)S(=O)(=O)c1ccc2c(c1)OCCO2 (stereo not drawn) [Compound 37] | < 1 nM | ≤ 100 nM |  |  | 
21 | CNc1cccc(S(=O)(=O)N(CC(O)C(Cc2ccccc2)NC(=O)OC2COC3OCCC23)CC(C)(C)CCCC#N)c1 (stereo not drawn) [Compound 38] | < 1 nM | ≤ 100 nM |  |  | 
22 | CC(C)(CCCC#N)CN(CC(O)C(Cc1ccccc1)NC(=O)OC1COC2OCCC12)S(=O)(=O)c1ccc2c(c1)OCO2 (stereo not drawn) [Compound 39] | < 1 nM | ≤ 100 nM | 1 to 10 nM |  | 
23 | CC(C)(CCCC#N)CN(CC(O)C(Cc1ccccc1)NC(=O)OC1COC2OCCC12)S(=O)(=O)c1ccc2c(c1)OCCO2 (stereo not drawn) [Compound 40] | < 1 nM | ≤ 100 nM |  |  | 
24 | CC(C)(CCC#N)CN(CC(O)C(Cc1ccccc1)NC(=O)OC1COC2OCCC12)S(=O)(=O)c1ccc2c(c1)OCCO2 (stereo not drawn) [Compound 41] | < 1 nM |  |  | ≤ 100 nM | 
25 | CC(C)(CCC#N)CN(C[C@@H](O)[C@H](Cc1ccccc1)NC(=O)OC1COCOC1)S(=O)(=O)c1ccc(O)cc1 [Compound 42, {(1S,2R)-1-Benzyl-3-[(4-cyano-2,2-dimethyl-butyl)-(4-hydroxybenzenesulfonyl)-amino]-2-hydroxy-propyl}-carbamic acid[1,3]dioxan-5-yl ester] | < 1 nM | 100 to 500 nM |  |  | 
26 | CCN(C(=O)OC(C)(C)C)c1cccc(S(=O)(=O)N(CC(O)C(Cc2ccccc2)NC(=O)OC2COC3OCCC23)CC(C)(C)CCC#N)c1 [Compound 43, {(1S,2R)-3-[(3-N-tert-butoxycarbonyl-N-ethylaminophenyl)sulfonyl]-(4-cyano-2,2-dimethyl-butyl)-amino]-1-benzyl-2-hydroxy-propyl}-carbamic acid (3R,3aS,6aR)hexahydro-furo[2,3-b]furan-3-yl ester] | < 1 nM | 100 to 500 nM |  |  | 

Reference: patent US6617350B2, “Inhibitors of aspartyl protease” (priority 1999, dated 2003)
